We go through four molecules from PMC11822212, “High-throughput screening identifies Aurora kinase B as a critical therapeutic target for Merkel cell carcinoma” (Nature Communications, 2025).

The subject of one assay is HACAT cells. Kind of assay: qHTS cell viability (CellTiter-Glo, 72 h; primary screen), control cell line. The format is cell-based, human. Background: Quantitative high-throughput screening tests each substance at several concentrations.
The next assay relates to MCC13 cells (VN-MCC). Kind of assay: qHTS cell viability (CellTiter-Glo, 72 h; primary and follow-up small molecule screen). Type of assay: cell-based, human.
The next assay relates to MKL-2 cells (VP-MCC). Described as above. Type of assay: cell-based, human.
In another assay the test system is WAGA cells (VP-MCC). Described as above. Type of assay: cell-based, human.
In assay [1] the test system is MCC cell lines (WAGA, MKL-1, MKL-2, MCC13, MCC26, UISO). Briefly: qHTS cell viability, all six MCC cell lines as a group (mean AUC, MCC.avg). Type of assay: cell-based, human.
The subject of another assay is CRL-7250 cells. Kind of assay: qHTS cell viability (CellTiter-Glo, 72 h; primary screen), control cell line. Type of assay: cell-based.
For another assay, the system named is MCC26 cells (VN-MCC). Kind of assay: qHTS cell viability (CellTiter-Glo, 72 h; primary and follow-up small molecule screen). The format is cell-based, human.
The subject of the next assay is HEK293T cells. Kind of assay: qHTS cell viability (CellTiter-Glo, 72 h; primary screen), control cell line. Type of assay: cell-based, human.
Assay [2] concerns VP-MCC cell lines (WAGA, MKL-1, MKL-2). Briefly: qHTS cell viability, VP-MCC cell lines as a group (mean AUC, VP.MCC.avg). Type of assay: cell-based, human.
The next assay has as its system MKL-1 cells (VP-MCC). Briefly: qHTS cell viability (CellTiter-Glo, 72 h; primary and follow-up small molecule screen). Type of assay: cell-based, human.
The next assay deals with NIH-3T3 cells. Briefly: qHTS cell viability (CellTiter-Glo, 72 h; primary screen), control cell line. The format is cell-based, mouse.
The subject of assay [3] is six MCC cell lines and four control cell lines. Kind of assay: qHTS cell viability, all 10 cell lines screened. Type of assay: cell-based.
Assay [4] relates to control cell lines (HACAT, HEK293T, CRL-7250, NIH-3T3). Kind of assay: qHTS cell viability, control cell lines as a group (mean AUC, Control.avg). The format is cell-based.
Assay [5] deals with VN-MCC cell lines (MCC13, MCC26, UISO). Kind of assay: qHTS cell viability, VN-MCC cell lines as a group (mean AUC, VN.MCC.avg). Type of assay: cell-based, human.
In another assay the test system is UISO cells (VN-MCC). Kind of assay: qHTS cell viability (CellTiter-Glo, 72 h; primary and follow-up small molecule screen). Type of assay: cell-based, human.
The mark [6] stands for this setting: NPC library, 8-point DRC, control cell line.
Where [7] appears, read: NPC library, 8-point DRC, area under dose-response curve.
[8] abbreviates: NPC library, mean AUC of six MCC cell lines.
The mark [9] stands for this setting: NPC library, mean AUC of VP-MCC cell lines.
Where [10] appears, read: NPC library, mean AUC of control cell lines.
Where [11] appears, read: NPC library, mean AUC of VN-MCC cell lines.
The mark [12] stands for this setting: MIPE library, 11-point DRC, control cell line, sheet S2E.
[13] abbreviates: MIPE library, 11-point DRC, sheet S2E.

Where a name gives a salt, the structure may show the parent alone. Read-outs that look alike come from different tables or passages of the source.

With `CNC(=O)[C@H](CC1=CN=C2C=CCC=C12)NC(=O)[C@@H](CC(=O)NO)CC(C)C` [GM-6001], the HACAT_AUC with HACAT cells was 458.777. In the assay on MCC13 cells (VN-MCC), this molecule yielded an MCC13_AUC of 475.165. The same molecule displayed an MKL2_AUC in the assay on MKL-2 cells (VP-MCC) of 291.464. The WAGA_AUC with WAGA cells (VP-MCC) was 319.008. The molecule also displayed an MCC_Avg_AUC in [1] of 388.271. Also, the CRL7250_AUC in the assay with CRL-7250 cells is on record as 472.869. For the same molecule, in the assay on MCC26 cells (VN-MCC), the MCC26_AUC turned out to be 475.207. Besides, the HEK293T_AUC in the assay on HEK293T cells was 473.463. In assay [2], this molecule yielded a Control-VP-MCC of 170.899 and a VP-MCC_Avg_AUC of 298.252. The MKL1_AUC in the assay on MKL-1 cells (VP-MCC) is 284.283. The NIH3T3_AUC in the assay on NIH-3T3 cells turned out to be 471.496. The Control-MCC in [3] was found to be 80.8804. The Control_Avg_AUC in assay [4] stood at 469.151. In assay [5], this molecule displayed a Control-VN-MCC of -9.139 and a VN-MCC_Avg_AUC of 478.29. The UISO_AUC in the assay with UISO cells (VN-MCC) worked out at 484.498.
As for `COc1ccc(CCN(C)CCCC(C#N)(c2cc(OC)c(OC)c(OC)c2)C(C)C)cc1OC` (stereo not drawn) [Gallopamil hydrochloride], the HACAT_AUC in the assay with HACAT cells (setting [6]) is 488.048. Moreover, the MCC13_AUC with MCC13 cells (VN-MCC) (setting [7]) was determined as 438.844. In addition, the MKL2_AUC in the assay on MKL-2 cells (VP-MCC) (setting [7]) turned out to be 457.405. The same molecule returned a WAGA_AUC in the assay with WAGA cells (VP-MCC) (setting [7]) of 444.909. In assay [1] (setting [8]), this molecule registered an MCC_Avg_AUC of 434.143. The CRL7250_AUC in the assay with CRL-7250 cells (setting [6]) is on record as 487.096. In addition, the MCC26_AUC in the assay with MCC26 cells (VN-MCC) (setting [7]) is recorded as 402.644. Besides, the HEK293T_AUC in the assay with HEK293T cells (setting [6]) was 464.897. Besides, the Control-VP-MCC in assay [2] (NPC library, Control AUC minus VP-MCC AUC (therapeutic window)) is given as 35.3303. The VP-MCC_Avg_AUC in [2] (setting [9]) amounted to 443.879. This molecule also registered an MKL1_AUC with MKL-1 cells (VP-MCC) (setting [7]) of 429.324. In the assay with NIH-3T3 cells (setting [6]), this molecule had an NIH3T3_AUC of 476.798. Further, in assay [3] (NPC library, Control AUC minus MCC AUC (therapeutic window)), the Control-MCC is on record as 45.0671. The molecule also gave a Control_Avg_AUC in assay [4] (setting [10]) of 479.21. The molecule also gave a Control-VN-MCC in assay [5] (NPC library, Control AUC minus VN-MCC AUC (therapeutic window)) of 54.804. Also, the VN-MCC_Avg_AUC in assay [5] (setting [11]) is 424.406. The UISO_AUC in the assay with UISO cells (VN-MCC) (setting [7]) turned out to be 431.729.
In the case of `C=CC(=O)Nc1cccc(Nc2nc(NC3CCC(N(C)C)CC3)nc3c2ncn3C(C)C)c1` (stereo not drawn) [HMSL10084], the HACAT_AUC in the assay with HACAT cells (setting [12]) was found to be 381.06. This molecule also gave an MCC13_AUC in the assay with MCC13 cells (VN-MCC) (setting [13]) of 424.628. The same molecule registered an MKL2_AUC in the assay on MKL-2 cells (VP-MCC) (setting [13]) of 208.594. The molecule also came in with a WAGA_AUC in the assay with WAGA cells (VP-MCC) (setting [13]) of 181.546. In addition, the MCC_Avg_AUC in [1] (MIPE library, mean AUC of six MCC cell lines, sheet S2E) came to 269.649. This molecule also had a CRL7250_AUC with CRL-7250 cells (setting [12]) of 274.567. In the assay on MCC26 cells (VN-MCC) (setting [13]), the MCC26_AUC is reported as 381.337. In the assay on HEK293T cells (setting [12]), this molecule displayed an HEK293T_AUC of 317.706. The molecule also registered a Control-VP-MCC in assay [2] (MIPE library, Control AUC minus VP-MCC AUC (therapeutic window), sheet S2E) of 174.338. In assay [2] (MIPE library, mean AUC of VP-MCC cell lines, sheet S2E), this molecule had a VP-MCC_Avg_AUC of 178.348. This molecule also returned an MKL1_AUC in the assay with MKL-1 cells (VP-MCC) (setting [13]) of 144.905. Also, the NIH3T3_AUC in the assay on NIH-3T3 cells (setting [12]) came out at 437.409. In addition, the Control-MCC in [3] (MIPE library, Control AUC minus MCC AUC (therapeutic window), sheet S2E) worked out at 83.0363. In addition, the Control_Avg_AUC in [4] (MIPE library, mean AUC of control cell lines, sheet S2E) was determined as 352.686. Also, the Control-VN-MCC in [5] (MIPE library, Control AUC minus VN-MCC AUC (therapeutic window), sheet S2E) is -8.265. Also, in assay [5] (MIPE library, mean AUC of VN-MCC cell lines, sheet S2E), the VN-MCC_Avg_AUC was determined as 360.951. The UISO_AUC with UISO cells (VN-MCC) (setting [13]) is 276.887.
Consider `Oc1ccc(O)cc1` [Hydroquinone], for which the HACAT_AUC was determined as 491.952 with HACAT cells (NPC library, qHTS dose-response AUC, HACAT control) and 491.952 with HACAT cells (area under the dose-response curve, HACAT control cells, AUC<450 = reduced viability). Besides, the MCC13_AUC is on record as 503.441 in the assay with MCC13 cells (VN-MCC) (NPC library, qHTS dose-response AUC, MCC13) and 503.441 in the assay on MCC13 cells (VN-MCC) (area under the dose-response curve, MCC13 cells, AUC<450 = reduced viability). Moreover, the MKL2_AUC in the assay with MKL-2 cells (VP-MCC) (NPC library, qHTS dose-response AUC, MKL2) is 400.457; in the assay on MKL-2 cells (VP-MCC) (area under the dose-response curve, MKL-2 cells, AUC<450 = reduced viability) it was 400.457. The WAGA_AUC is on record as 370.144 in the assay with WAGA cells (VP-MCC) (NPC library, qHTS dose-response AUC, WAGA) and 370.144 in the assay with WAGA cells (VP-MCC) (area under the dose-response curve, WAGA cells, AUC<450 = reduced viability). In assay [1] (setting [8]), this molecule returned an MCC_Avg_AUC of 442.057. Further, the CRL7250_AUC was 487.877 in the assay with CRL-7250 cells (NPC library, qHTS dose-response AUC, CRL7250 control) and 487.877 with CRL-7250 cells (area under the dose-response curve, CRL7250 control cells, AUC<450 = reduced viability). Besides, the MCC26_AUC in the assay with MCC26 cells (VN-MCC) (NPC library, qHTS dose-response AUC, MCC26) turned out to be 512.585; in the assay on MCC26 cells (VN-MCC) (area under the dose-response curve, MCC26 cells, AUC<450 = reduced viability), 512.585. The HEK293T_AUC is recorded as 480.593 in the assay with HEK293T cells (NPC library, qHTS dose-response AUC, HEK293T control) and 480.593 in the assay with HEK293T cells (area under the dose-response curve, HEK293T control cells, AUC<450 = reduced viability). The same molecule returned a VP-MCC_Avg_AUC in [2] (setting [9]) of 395.258. In [2] (NPC library, therapeutic window: Control avg AUC minus VP-MCC avg AUC), this molecule gave a Control-VP-MCC of 91.96. Moreover, the MKL1_AUC in the assay on MKL-1 cells (VP-MCC) (NPC library, qHTS dose-response AUC, MKL1) is on record as 415.173; with MKL-1 cells (VP-MCC) (area under the dose-response curve, MKL-1 cells, AUC<450 = reduced viability) it was 415.173. In addition, the NIH3T3_AUC with NIH-3T3 cells (NPC library, qHTS dose-response AUC, NIH3T3 control) turned out to be 488.45; in the assay on NIH-3T3 cells (area under the dose-response curve, NIH3T3 control cells, AUC<450 = reduced viability), 488.45. Besides, the Control-MCC in [3] (NPC library, therapeutic window: Control avg AUC minus MCC avg AUC) worked out at 45.1616. For the same molecule, in assay [4] (setting [10]), the Control_Avg_AUC is 487.218. In assay [5] (setting [11]), this molecule registered a VN-MCC_Avg_AUC of 488.855. In assay [5] (NPC library, therapeutic window: Control avg AUC minus VN-MCC avg AUC), this molecule had a Control-VN-MCC of -1.637. The UISO_AUC in the assay with UISO cells (VN-MCC) (NPC library, qHTS dose-response AUC, UISO) came to 450.538; in the assay on UISO cells (VN-MCC) (area under the dose-response curve, UISO cells, AUC<450 = reduced viability), 450.538.
